Consider 17 compounds from patent US12310975B2, “Modulators of BCL6 proteolysis and associated methods of use” (Arvinas Operations, Inc., priority 2019, dated 2025).

Bounds are passed on as bounds.

The target of this experiment is BCL6 (Homo sapiens (Human), UniProt P41182). Description: Immunofluorescence high content imaging of BCL6 degradation in T47D cells. In kind it is cell-based. The settings on record: T47D cells. The gist of the method: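 Seed T47D in RPMI1640-10% FBS to reach ~70-90% confluence at endpoint; add degrader next day (11-point 3-fold series, top 0.1 or 1 μM final) for 3 days. Then fix, permeabilize, stain BCL6 with nuclear Hoechst, and image.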
As a reminder, the Dmax is the largest share of the target that was removed. As a reminder, the IC50 is the concentration needed to halve the response being measured. A low value points to greater potency in that assay. `CCn1c(=O)c(OCC(=O)NC)cc2cc(Nc3nc(N4CCC(OCC5CCN(c6ccc7c(c6)C(=O)N(C6CCC(=O)NC6=O)C7=O)CC5)CC4)ncc3Cl)ccc21` (centres unmarked) [compound 329, 2-{[6-({5-chloro-2-[4-({1-[2-(2,6-dioxopiperidin-3-yl)-1,3-dioxo-2,3-dihydro-1H-isoindol-5-yl]piperidin-4-yl}methoxy)piperidin-1-yl]pyrimidin-4-yl}amino)-1-ethyl-2-oxo-1,2-dihydroquinolin-3-yl]oxy}-N-methylacetamide]: the Dmax is < 50% and the IC50 was < 10 nM.

Take `CCn1c(=O)c(OCC(=O)NC)cc2cc(Nc3nc(N4CCC(OCC5CCN(c6cccc7c6C(=O)N(C6CCC(=O)NC6=O)C7=O)CC5)CC4)ncc3Cl)ccc21` (centres unmarked) [compound 330, 2-{[6-({5-chloro-2-[4-({1-[2-(2,6-dioxopiperidin-3-yl)-1,3-dioxo-2,3-dihydro-1H-isoindol-4-yl]piperidin-4-yl}methoxy)piperidin-1-yl]pyrimidin-4-yl}amino)-1-ethyl-2-oxo-1,2-dihydroquinolin-3-yl]oxy}-N-methylacetamide]: the Dmax fell in the range of 50 to 70% and the IC50 is < 10 nM.

`CCn1c(=O)c(OCC(=O)NC)cc2cc(Nc3nc(N4CCC(COC5CCN(c6ccc7c(c6)C(=O)N(C6CCC(=O)NC6=O)C7=O)CC5)CC4)ncc3Cl)ccc21` (centres unmarked) [compound 331, 2-({6-[(5-chloro-2-{4-[({1-[2-(2,6-dioxopiperidin-3-yl)-1,3-dioxo-2,3-dihydro-1H-isoindol-5-yl]piperidin-4-yl}oxy)methyl]piperidin-1-yl}pyrimidin-4-yl)amino]-1-ethyl-2-oxo-1,2-dihydroquinolin-3-yl}oxy)-N-methylacetamide]: the Dmax is < 50% and the IC50 was < 10 nM.

`CCn1c(=O)c(OCC(=O)NC)cc2cc(Nc3nc(N4CCC(COC5CCN(c6cccc7c6C(=O)N(C6CCC(=O)NC6=O)C7=O)CC5)CC4)ncc3Cl)ccc21` (centres unmarked) [compound 332, 2-({6-[(5-chloro-2-{4-[({1-[2-(2,6-dioxopiperidin-3-yl)-1,3-dioxo-2,3-dihydro-1H-isoindol-4-yl]piperidin-4-yl}oxy)methyl]piperidin-1-yl}pyrimidin-4-yl)amino]-1-ethyl-2-oxo-1,2-dihydroquinolin-3-yl}oxy)-N-methylacetamide]: the Dmax is 50 to 70% and the IC50 is < 10 nM.

As for `CNC(=O)COc1cc2cc(Nc3nc(N4CCN(CC5CCN(c6ccc7c(c6)C(=O)N(C6CCC(=O)NC6=O)C7=O)CC5)CC4)ncc3Cl)ccc2n(CCC2CC2)c1=O` (centres unmarked) [compound 333, 2-{[6-({5-chloro-2-[4-({1-[2-(2,6-dioxopiperidin-3-yl)-1,3-dioxo-2,3-dihydro-1H-isoindol-5-yl]piperidin-4-yl}methyl)piperazin-1-yl]pyrimidin-4-yl}amino)-1-(2-cyclopropylethyl)-2-oxo-1,2-dihydroquinolin-3-yl]oxy}-N-methylacetamide], the Dmax fell in the range of 50 to 70% and the IC50 is < 10 nM.

Regarding `CNC(=O)COc1cc2cc(Nc3nc(N4CCC[C@H](COc5cccc6c5C(=O)N(C5CCC(=O)NC5=O)C6=O)C4)ncc3Cl)ccc2n(CCC2CC2)c1=O` (stereo partly drawn) [compound 334, 2-{[6-({5-chloro-2-[(3S)-3-({[2-(2,6-dioxopiperidin-3-yl)-1,3-dioxo-2,3-dihydro-1H-isoindol-4-yl]oxy}methyl)piperidin-1-yl]pyrimidin-4-yl}amino)-1-(2-cyclopropylethyl)-2-oxo-1,2-dihydroquinolin-3-yl]oxy}-N-methylacetamide], the Dmax is ≥ 70% and the IC50 is < 10 nM.

Take `CNC(=O)COc1cc2cc(Nc3nc(N4CCN(C(C)C5CCN(c6ccc7c(c6)C(=O)N(C6CCC(=O)NC6=O)C7=O)CC5)CC4)ncc3Cl)ccc2n(C)c1=O` (centres unmarked) [compound 335, 2-{[6-({5-chloro-2-[4-(1-{1-[2-(2,6-dioxopiperidin-3-yl)-1,3-dioxo-2,3-dihydro-1H-isoindol-5-yl]piperidin-4-yl}ethyl)piperazin-1-yl]pyrimidin-4-yl}amino)-1-methyl-2-oxo-1,2-dihydroquinolin-3-yl]oxy}-N-methylacetamide]: the Dmax was in the range of 50 to 70% and the concentration for half-maximal inhibition (IC50) was < 10 nM.

For `CNC(=O)COc1cc2cc(Nc3nc(N4CCC[C@H](COc5cccc6c5C(=O)N(C5CCC(=O)NC5=O)C6=O)C4)ncc3Cl)ccc2n(C2CC2)c1=O` (stereo partly drawn) [compound 336, 2-{[6-({5-chloro-2-[(3S)-3-({[2-(2,6-dioxopiperidin-3-yl)-1,3-dioxo-2,3-dihydro-1H-isoindol-4-yl]oxy}methyl)piperidin-1-yl]pyrimidin-4-yl}amino)-1-cyclopropyl-2-oxo-1,2-dihydroquinolin-3-yl]oxy}-N-methylacetamide], the maximal degradation (Dmax) was 50 to 70% and the IC50 lay within 10 to 50 nM.

In the case of `CCC(C1CCN(c2ccc3c(c2)C(=O)N(C2CCC(=O)NC2=O)C3=O)CC1)N1CCN(c2ncc(Cl)c(Nc3ccc4c(c3)cc(OCC(=O)NC)c(=O)n4C)n2)CC1` (centres unmarked) [compound 337, 2-{[6-({5-chloro-2-[4-(1-{1-[2-(2,6-dioxopiperidin-3-yl)-1,3-dioxo-2,3-dihydro-1H-isoindol-5-yl]piperidin-4-yl}propyl)piperazin-1-yl]pyrimidin-4-yl}amino)-1-methyl-2-oxo-1,2-dihydroquinolin-3-yl]oxy}-N-methylacetamide], the Dmax is < 50%.

In the case of `CCCC(C1CCN(c2ccc3c(c2)C(=O)N(C2CCC(=O)NC2=O)C3=O)CC1)N1CCN(c2ncc(Cl)c(Nc3ccc4c(c3)cc(OCC(=O)NC)c(=O)n4C)n2)CC1` (centres unmarked) [compound 338, 2-{[6-({5-chloro-2-[4-(1-{1-[2-(2,6-dioxopiperidin-3-yl)-1,3-dioxo-2,3-dihydro-1H-isoindol-5-yl]piperidin-4-yl}butyl)piperazin-1-yl]pyrimidin-4-yl}amino)-1-methyl-2-oxo-1,2-dihydroquinolin-3-yl]oxy}-N-methylacetamide], the Dmax was < 50% and the IC50 was < 10 nM.

Regarding `CNC(=O)COc1cc2cc(Nc3nc(N4CCN(CC5(F)CCN(c6ccc7c(c6)C(=O)N(C6CCC(=O)NC6=O)C7=O)CC5)CC4)ncc3Cl)ccc2n(C)c1=O` (centres unmarked) [compound 339, 2-{[6-({5-chloro-2-[4-({1-[2-(2,6-dioxopiperidin-3-yl)-1,3-dioxo-2,3-dihydro-1H-isoindol-5-yl]-4-fluoropiperidin-4-yl}methyl)piperazin-1-yl]pyrimidin-4-yl}amino)-1-methyl-2-oxo-1,2-dihydroquinolin-3-yl]oxy}-N-methylacetamide], the Dmax was in the range of 50 to 70% and the IC50 is < 10 nM.

In the case of `CNC(=O)COc1cc2cc(Nc3nc(N4CCC(F)(CN5CCN(c6ccc7c(c6)C(=O)N(C6CCC(=O)NC6=O)C7=O)CC5)CC4)ncc3Cl)ccc2n(C)c1=O` (centres unmarked) [compound 340, 2-{[6-({5-chloro-2-[4-({4-[2-(2,6-dioxopiperidin-3-yl)-1,3-dioxo-2,3-dihydro-1H-isoindol-5-yl]piperazin-1-yl}methyl)-4-fluoropiperidin-1-yl]pyrimidin-4-yl}amino)-1-methyl-2-oxo-1,2-dihydroquinolin-3-yl]oxy}-N-methylacetamide], the Dmax is 50 to 70% and the IC50 is < 10 nM.

For the compound `CNC(=O)COc1cc2cc(Nc3nc(N4CCN(CC5(F)CCN(c6cccc7c6C(=O)N(C6CCC(=O)NC6=O)C7=O)CC5)CC4)ncc3Cl)ccc2n(C)c1=O` (centres unmarked) [compound 341, 2-{[6-({5-chloro-2-[4-({1-[2-(2,6-dioxopiperidin-3-yl)-1,3-dioxo-2,3-dihydro-1H-isoindol-4-yl]-4-fluoropiperidin-4-yl}methyl)piperazin-1-yl]pyrimidin-4-yl}amino)-1-methyl-2-oxo-1,2-dihydroquinolin-3-yl]oxy}-N-methylacetamide], the Dmax is ≥ 70% and the IC50 is < 10 nM.

For the compound `CNC(=O)COc1cc2cc(Nc3nc(N4CCC(F)(CN5CCN(c6cccc7c6C(=O)N(C6CCC(=O)NC6=O)C7=O)CC5)CC4)ncc3Cl)ccc2n(C)c1=O` (centres unmarked) [compound 342, 2-{[6-({5-chloro-2-[4-({4-[2-(2,6-dioxopiperidin-3-yl)-1,3-dioxo-2,3-dihydro-1H-isoindol-4-yl]piperazin-1-yl}methyl)-4-fluoropiperidin-1-yl]pyrimidin-4-yl}amino)-1-methyl-2-oxo-1,2-dihydroquinolin-3-yl]oxy}-N-methylacetamide], the maximal degradation (Dmax) was in the range of 50 to 70% and the IC50 was < 10 nM.

In the case of `CNC(=O)COc1cc2cc(Nc3nc(N4CCC[C@H](COc5cccc6c5C(=O)N(C5CCC(=O)NC5=O)C6=O)C4)ncc3Cl)ccc2n(C2CCCCC2)c1=O` (stereo partly drawn) [compound 343, 2-{[6-({5-chloro-2-[(3S)-3-({[2-(2,6-dioxopiperidin-3-yl)-1,3-dioxo-2,3-dihydro-1H-isoindol-4-yl]oxy}methyl)piperidin-1-yl]pyrimidin-4-yl}amino)-1-cyclohexyl-2-oxo-1,2-dihydroquinolin-3-yl]oxy}-N-methylacetamide], the Dmax was 50 to 70% and the IC50 was < 10 nM.

With `CCOc1cc(N2CCC(CN3CCN(c4ncc(Cl)c(Nc5ccc6c(c5)cc(OCC(=O)NC)c(=O)n6C)n4)CC3)CC2)ccc1C(=O)NC1CCC(=O)NC1=O` (centres unmarked) [compound 344, 4-[4-({4-[5-chloro-4-({1-methyl-3-[(methylcarbamoyl)methoxy]-2-oxo-1,2-dihydroquinolin-6-yl}amino)pyrimidin-2-yl]piperazin-1-yl}methyl)piperidin-1-yl]-N-(2,6-dioxopiperidin-3-yl)-2-ethoxybenzamide], the Dmax was < 50% and the IC50 is < 10 nM.

Take `CCCOc1cc(N2CCC(CN3CCN(c4ncc(Cl)c(Nc5ccc6c(c5)cc(OCC(=O)NC)c(=O)n6C)n4)CC3)CC2)ccc1C(=O)NC1CCC(=O)NC1=O` (centres unmarked) [compound 345, 4-[4-({4-[5-chloro-4-({1-methyl-3-[(methylcarbamoyl)methoxy]-2-oxo-1,2-dihydroquinolin-6-yl}amino)pyrimidin-2-yl]piperazin-1-yl}methyl)piperidin-1-yl]-N-(2,6-dioxopiperidin-3-yl)-2-propoxybenzamide]: the IC50 is ≥ 100 nM.
